Results from BigSolDB 2.1.

Nc1ncnc2c1ncn2CCOCP(=O)(O)O
solubility (mole fraction)
Details | 278.15 K | 283.15 K | 288.15 K | 293.15 K | 298.15 K | 303.15 K | 308.15 K | 313.15 K | 318.15 K | 323.15 K
in DMF | 0.000121 | 0.000203 | 0.000318 | 0.000491 | 0.000762 | 0.00115 | 0.00172 | 0.00254 | 0.00368 | 0.0053
in acetone | 0.000103 | 0.000114 | 0.000145 | 0.00018 | 0.000231 | 0.000286 | 0.000359 | 0.000435 | 0.000531 | 0.00065
in ethanol | 7.5e-05 | 9.4e-05 | 0.00012 | 0.000154 | 0.000191 | 0.000237 | 0.000291 | 0.000342 | 0.000438 | 0.000541
in isobutanol | 0.000183 | 0.000211 | 0.000252 | 0.000296 | 0.000365 | 0.000433 | 0.000505 | 0.000597 | 0.00069 | 0.00081
in methanol | 0.000352 | 0.000395 | 0.000455 | 0.000523 | 0.0006 | 0.000704 | 0.000805 | 0.000915 | 0.00105 | 0.00122
in n-heptane | 0.000127 | 0.000139 | 0.000175 | 0.000217 | 0.000269 | 0.000325 | 0.000394 | 0.000473 | 0.00057 | 0.000679
in n-propanol | 0.000217 | 0.000235 | 0.000279 | 0.000343 | 0.000409 | 0.000485 | 0.00058 | 0.000681 | 0.0008 | 0.00093
in toluene | 5.7e-05 | 6.5e-05 | 8.7e-05 | 0.000115 | 0.000144 | 0.000185 | 0.000239 | 0.000295 | 0.000373 | 0.000464
